Laboratory results published in patent EP1149079B1, “TETRAHYDRO ISOQUINO LINEALKANOL DERIVATIVES AND PHARMACEUTICAL COMPOSITIONS CONTAINING SAME” (SK Corporation, priority 1999, dated 2000).

Assays:
mice [1] = experiment: Behavior Despair (Forced Swimming) test, mice dosed ip; type: in vivo; conditions: reduction in immobility time versus vehicle; dose 30 mg/kg (ip); one hour after dosing; 15-minute test period
Procedure: (§1) Behavior Despair (Forced Swimming) test, a well known pharmacological screening method for depression, was conducted similar to the test described by Porsolt, R.D., Bertin, A. and Jalfre, M.: Behavior despair in mice: A preliminary screening test for antidepressants. Arch. Int. Pharmacodyn. Ther. 229: 327-336, 1977.
Mice were dosed intraperitoneally (ip) with either test compound or vehicle. One hour later each animal was placed in a 1500 mL glass beaker containing water at room temperature. Mice were kept in the water for a period of 15 minutes and the duration of immobility observed within the 15-minute test period was recorded. A mouse was judged to be immobile if it floated motionlessly in the water making only those movements necessary to keep its head above the water. For calculation of percent (%) reduction in immobility time, the difference in immobility time for control vehicle versus the drug is divided by the immobility time of the control vehicle and multiplied by 100.

mice [2] = experiment: Head-twitch test (5-HTP-induced head-twitch response); type: in vivo; conditions: oral, head twitches counted in a 2-minute period 30 min after 5-HTP 100 mg/kg ip, versus vehicle control
Procedure: The head-twitch response of mice is initiated by a variety of 5-HT mimetic drugs. The test was conducted in a manner similar to the procedure described by Heal, D.J., Philpot, J, O'Shaughnessy, K.M. and Davies, C.L.: The influence of central noradrenergic function on 5-HT-mediated head-twitch responses in mice: Possible implications for the actions of antidepressant drugs. Psychopharmacology 89: 414-420, 1986,
The head-twitch consisted of a characteristic rotation of the head, neck and shoulders of the mice. The test drug or vehicle was given by oral gavage. Thirty minutes later all animals were pretreated with carbidopa (25 mg/kg ip). Fifteen minutes following carbidopa administration, the mice were injected with 100 mg/kg ip of L-5-hydroxytryptophan (5-HTP). The animals were then left for 30 minutes before measurement of the head-twitch response in the following 2-minute period. For calculation of percent (%) response increase, the difference in drug head twitch number versus the control vehicle head twitch number is divided by the control head twitch and multiplied by 100.

MAO-A = biological target: T1, MAO-A (Rattus norvegicus, UniProt P21396); experiment: MAO-A inhibiting activity in vitro, radioisotopic assay with [14C] serotonin; type: biochemical; conditions: Rat liver mitochondrial membranes, 300 nM deprenyl to block MAO-B, preincubation 60 minutes at 37°C
T1 construct: Rat liver mitochondrial membranes as the source of the enzyme; from tissue; host or cells: rat liver mitochondrial membranes
T1 sequence (P21396 1-526): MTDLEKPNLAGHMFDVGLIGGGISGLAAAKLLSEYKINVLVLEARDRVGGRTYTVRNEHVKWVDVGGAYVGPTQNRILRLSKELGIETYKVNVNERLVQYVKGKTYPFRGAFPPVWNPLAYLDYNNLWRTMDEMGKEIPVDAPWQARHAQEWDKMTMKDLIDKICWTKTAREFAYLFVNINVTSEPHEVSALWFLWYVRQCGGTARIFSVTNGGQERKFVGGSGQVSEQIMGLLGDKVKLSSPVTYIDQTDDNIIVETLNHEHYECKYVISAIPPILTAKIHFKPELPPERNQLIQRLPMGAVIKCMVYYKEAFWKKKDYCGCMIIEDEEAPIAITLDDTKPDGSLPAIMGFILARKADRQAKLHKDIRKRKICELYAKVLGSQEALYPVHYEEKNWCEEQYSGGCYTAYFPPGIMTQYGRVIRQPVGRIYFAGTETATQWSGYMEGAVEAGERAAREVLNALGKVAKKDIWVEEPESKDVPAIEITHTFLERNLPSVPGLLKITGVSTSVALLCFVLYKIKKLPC
Procedure: The MAO-A activities in vitro were measured using Rat liver mitochondrial membranes as the source of the enzyme, according to modified method of S. Otsuka & Y. Kobayashi. A Radioisotopic Assay for Monoamine Oxidase Determinations in Human Plasma. Biochem. Pharmacol. 13: 995-1006 (1964)
Rat liver mitochondrial membranes is preincubated with drug or vehicle, and subtype selective blocker (300 nM deprenyl to block the B type of MAO) for 60 minutes at 37°C in 100 mM KPO4 (pH 7.2). [^14C] Serotonin ([…]) is then added and incubated for 10 minutes. The reaction is stopped by the addition of 0.5 ml of 2M citric acid. Radioactive product is extracted into a toluene/ethyl acetate fluor and compared to control values by scintillation spectrophotometry in order to ascertain any interactions of test compounds with MAO-A.

Rats = experiment: Behavior Despair (Forced Swimming) test, rats dosed po; type: in vivo; conditions: reduction in immobility time versus vehicle; dose 60 mg/kg (po); one hour after dosing; 4-minute test period
Procedure: as §1
Rats were pre-swam for 10 minute the day before the test in 4000 mL glass cylinders containing water at 25°C. On the following day, rats were dosed orally (po) with either test compound or vehicle. One hour later each animal was placed in the glass cylinder and, following a 2-minute pretest, immobility was recorded for a 4-minute test period. For calculation of percent (%) reduction in immobility time, the difference in immobility time for control vehicle versus the drug is divided by the immobility time of the control vehicle and multiplied by 100.

CNC(=S)OC[C@@H]1Cc2ccccc2CN1C(=O)Nc1ccccc1 [Example 17, (S)-3-(N-Methyl-thiocarbamoyloxymethyl)-N-(anilinocarbonyl)-1,2,3,4-tetrahydroisoquinoline] was tested, and the “% Reduction” value (mice [1]) was 46%.
In the case of CNC(=S)OC[C@@H]1Cc2ccccc2CN1 [Example 16, (S)-3-(N-Methylthiocarbamoyloxymethyl)-1,2,3,4-tetrahydroisoquinoline], the “% Reduction” value (mice [1]) is reported as 56%.
For CNC(=S)OC[C@@H]1Cc2ccccc2CN1C [Example 18, (S)-3-(N-Methylthiocarbamoyloxymethyl)-N-methyl-1,2,3,4-tetrahydroisoquinoline], the “% Reduction” value (mice [1]) was 33%.
For NC(=O)OC[C@H]1Cc2ccccc2CN1 [Example 4, (R)-3-Carbamoyloxymethyl-1,2,3,4-tetrahydroisoquinoline], the “% Response Increase” value (mice [2]; dose 15 mg/kg) was 258% and the inhibition at 10 µM (MAO-A) was 63.9%.
For NC(=O)OC[C@@H]1Cc2ccccc2CN1 [Example 3, (S)-3-Carbamoyloxymethyl-1,2,3,4-tetrahydroisoquinoline], the “% Response Increase” value (mice [2]; dose 1 mg/kg) was 238%, the “% Reduction” value (Rats) was 83% and the inhibition at 10 µM (MAO-A) was 97.7%.
For CN1Cc2ccccc2C[C@H]1COC(N)=O [Example 8, (S)-3-Carbamoyloxymethyl-N-methyl-1,2,3,4-tetrahydroisoquinoline], the “% Response Increase” value (mice [2]; dose 1 mg/kg) was 77%.
NC(=O)OCC1Cc2ccccc2CN1 (racemic) [Example 5, (RS)-3-Carbamoyloxymethyl-1,2,3,4-tetrahydroisoquinoline] was tested, and the “% Response Increase” value (mice [2]; dose 3 mg/kg) was 144%.
With NC(=S)OCC1Cc2ccccc2CN1 (centres unmarked) [Example 14, 3-Thiocarbamoyloxymethyl-1,2,3,4-tetrahydroisoquinoline] the “% Response Increase” value (mice [2]; dose 8 mg/kg) was 42%.
